Data published in US20230085307A1, “PYRIDAZINONE COMPOUND AND HERBICIDE” (NISSAN CHEMICAL CORPORATION, priority 2019, published 2023).

Columns and labels:
[1] = system: southern crabgrass; assay: Test Example 5: herbicidal effect by foliage application, plastic box (Table 20, symbol F); type: in vivo, southern crabgrass (Digitaria ciliaris); settings: for F: southern crabgrass, herbicidal effect grade: three weeks after application
Outline: (§1)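 Post-emergence foliar test in sterilized diluvial soil. Compound applied as water-diluted emulsion at a predetermined rate to 14-day-old plants; evaluation at three weeks.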

[2] = system: chickweed; assay: Test Example 5: herbicidal effect by foliage application, plastic box (Table 20, symbol P); type: in vivo, common chickweed (Stellaria media); settings: for P: chickweed, herbicidal effect grade: three weeks after application
Outline: as §1

[3] = system: oval-leafed pondweed; assay: Test Example 2: herbicidal activity, application during weed generation under submerged conditions (Table 17, symbol C); type: in vivo, oval-leafed pondweed (Monochoria vaginalis); settings: AAH 320 g/ha; application during weed generation, submerged conditions
Outline: (§2)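 Steps: fill Wagner pots with alluvial soil; add water to give 4 cm depth; sow the species mixed; grow under glass at 25–30° C.; at 1–2 leaves apply water-diluted emulsion formulation to the water surface at a fixed herbicide amount; score after 3 weeks.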

[4] = system: redroot pigweed; assay: Test Example 4: herbicidal effect by soil treatment (Table 19, symbol N); type: in vivo, redroot pigweed (Amaranthus retroflexus); settings: amount of applied herbicide 320 g/ha
Outline: (§3)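 Emulsion of test compound, water-diluted to predetermined amount, sprayed on soil after sowing (seed depth ~1.5 cm, sterilized diluvial soil). Greenhouse, 25–30° C. Effect graded at three weeks post-spray.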

[5] = system: Italian ryegrass; assay: Test Example 5: herbicidal effect by foliage application, plastic box (Table 20, symbol K); type: in vivo, Italian ryegrass (Lolium multiflorum); settings: for K: Italian ryegrass, herbicidal effect grade: three weeks after application
Outline: as §1

[6] = system: late watergrass; assay: Test Example 1: herbicidal activity, application before weed generation under submerged conditions (Table 16, symbol A); type: in vivo, late watergrass (Echinochloa oryzicola); settings: amount of applied herbicide 320 g/ha
Outline: (§4)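 Alluvial soil was flooded to 4 cm depth, weed seeds were sown mixed and 2.5-leaf rice seedlings were transplanted. On sowing day, the compound's emulsion, diluted in water to a set dose, was applied to the water surface. Plants grew at 25–30 °C and were scored 0–5 after three weeks.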

[7] = system: wild oat; assay: Test Example 4: herbicidal effect by soil treatment (Table 19, symbol I); type: in vivo, wild oat (Avena fatua); settings: amount of applied herbicide 320 g/ha
Outline: as §3

[8] = system: velvetleaf; assay: Test Example 5: herbicidal effect by foliage application, plastic box (Table 20, symbol M); type: in vivo, velvetleaf (Abutilon theophrasti); settings: for M: velvetleaf, herbicidal effect grade: three weeks after application
Outline: as §1

[9] = system: Italian ryegrass; assay: Test Example 4: herbicidal effect by soil treatment (Table 19, symbol K); type: in vivo, Italian ryegrass (Lolium multiflorum); settings: amount of applied herbicide 320 g/ha
Outline: as §3

[10] = system: green foxtail; assay: Test Example 4: herbicidal effect by soil treatment (Table 19, symbol G); type: in vivo, green foxtail (Setaria viridis); settings: amount of applied herbicide 320 g/ha
Outline: as §3

[11] = system: windgrass; assay: Test Example 5: herbicidal effect by foliage application, plastic box (Table 20, symbol L); type: in vivo, windgrass (Apera spica-venti); settings: for L: windgrass, herbicidal effect grade: three weeks after application
Outline: as §1

[12] = system: velvetleaf; assay: Test Example 4: herbicidal effect by soil treatment (Table 19, symbol M); type: in vivo, velvetleaf (Abutilon theophrasti); settings: amount of applied herbicide 320 g/ha
Outline: as §3

[13] = system: Japanese bulrush; assay: Test Example 2: herbicidal activity, application during weed generation under submerged conditions (Table 17, symbol B); type: in vivo, Japanese bulrush (Schoenoplectus juncoides); settings: AAH 320 g/ha; application during weed generation, submerged conditions
Outline: as §2

[14] = system: blackgrass; assay: Test Example 5: herbicidal effect by foliage application, plastic box (Table 20, symbol J); type: in vivo, blackgrass (Alopecurus myosuroides); settings: for J: blackgrass, herbicidal effect grade: three weeks after application
Outline: as §1

[15] = system: green foxtail; assay: Test Example 5: herbicidal effect by foliage application, plastic box (Table 20, symbol G); type: in vivo, green foxtail (Setaria viridis); settings: for G: green foxtail, herbicidal effect grade: three weeks after application
Outline: as §1

[16] = system: persian speedwell; assay: Test Example 4: herbicidal effect by soil treatment (Table 19, symbol R); type: in vivo, Persian speedwell (Veronica persica); settings: amount of applied herbicide 320 g/ha
Outline: as §3

[17] = system: blackgrass; assay: Test Example 4: herbicidal effect by soil treatment (Table 19, symbol J); type: in vivo, blackgrass (Alopecurus myosuroides); settings: amount of applied herbicide 320 g/ha
Outline: as §3

[18] = system: lambsquarters; assay: Test Example 4: herbicidal effect by soil treatment (Table 19, symbol O); type: in vivo, lambsquarters (Chenopodium album); settings: amount of applied herbicide 320 g/ha
Outline: as §3

[19] = system: wild oat; assay: Test Example 5: herbicidal effect by foliage application, plastic box (Table 20, symbol I); type: in vivo, wild oat (Avena fatua); settings: for I: wild oat, herbicidal effect grade: three weeks after application
Outline: as §1

[20] = system: barnyard grass; assay: Test Example 5: herbicidal effect by foliage application, plastic box (Table 20, symbol H); type: in vivo, barnyard grass (Echinochloa crus-galli); settings: for H: barnyard grass, herbicidal effect grade: three weeks after application
Outline: as §1

[21] = system: Japanese bulrush; assay: Test Example 1: herbicidal activity, application before weed generation under submerged conditions (Table 16, symbol B); type: in vivo, Japanese bulrush (Schoenoplectus juncoides); settings: amount of applied herbicide 320 g/ha
Outline: as §4

[22] = foliage application, AAH 320 g/ha, evaluated three weeks after application
[23] = 320 g/ha, foliage application after 14-day growth, evaluated three weeks after application

Structure (SMILES)	F: southern crabgrass, herbicidal effect grade ([1]; foliage application, 320 g/ha)	P: chickweed, herbicidal effect grade ([2]; foliage application, 320 g/ha)	herbicidal effect rating, C: oval-leafed pondweed [3]	K: Italian ryegrass, herbicidal effect grade ([5]; foliage application, 320 g/ha)	Herbicidal effect, A: late watergrass [6]	M: velvetleaf, herbicidal effect grade ([8]; foliage application, 320 g/ha)	L: windgrass, herbicidal effect grade ([11]; foliage application, 320 g/ha)	herbicidal effect rating, B: Japanese bulrush [13]	J: blackgrass, herbicidal effect grade ([14]; foliage application, 320 g/ha)	G: green foxtail, herbicidal effect grade ([15]; foliage application, 320 g/ha)	I: wild oat, herbicidal effect grade ([19]; foliage application, 320 g/ha)	H: barnyard grass, herbicidal effect grade ([20]; foliage application, 320 g/ha)	Herbicidal effect, B: Japanese bulrush [21]	herbicidal effect, N: redroot pigweed [4]	herbicidal effect, I: wild oat [7]	herbicidal effect, K: Italian ryegrass [9]	herbicidal effect, G: green foxtail [10]	herbicidal effect, M: velvetleaf [12]	herbicidal effect, R: persian speedwell [16]	herbicidal effect, J: blackgrass [17]	also measured
COc1ccccc1-c1sc2cc(OC(F)F)ccc2c1-c1c(O)c(C)nn(C)c1=O [3-113]	1 (Herbicidal rate of 5% or more and less than 20%)	5 (Herbicidal rate of 90% or more (almost completely withered))	0 (Herbicidal rate of 5% or less (almost no effect))	5 (Herbicidal rate of 90% or more (almost completely withered))	4 (Herbicidal rate of 70% or more and less than 90%)	5 (Herbicidal rate of 90% or more (almost completely withered))	5 (Herbicidal rate of 90% or more (almost completely withered))	2 (Herbicidal rate of 20% or more and less than 40%)	5 (Herbicidal rate of 90% or more (almost completely withered))	5 (Herbicidal rate of 90% or more (almost completely withered))	4 (Herbicidal rate of 70% or more and less than 90%)	5 (Herbicidal rate of 90% or more (almost completely withered))	3 (Herbicidal rate of 40% or more and less than 70%)								N: redroot pigweed, herbicidal effect grade [4]: 5 (Herbicidal rate of 90% or more (almost completely withered)); I: wild oat, herbicidal effect grade [7]: 0 (Herbicidal rate of 5% or less (almost no effect)); K: Italian ryegrass, herbicidal effect grade [9]: 5 (Herbicidal rate of 90% or more (almost completely withered)); G: green foxtail, herbicidal effect grade [10]: 5 (Herbicidal rate of 90% or more (almost completely withered)); M: velvetleaf, herbicidal effect grade [12]: 4 (Herbicidal rate of 70% or more and less than 90%); R: persian speedwell, herbicidal effect grade [16]: 5 (Herbicidal rate of 90% or more (almost completely withered)); J: blackgrass, herbicidal effect grade [17]: 4 (Herbicidal rate of 70% or more and less than 90%); O: lambsquarters, herbicidal effect grade [18]: 5 (Herbicidal rate of 90% or more (almost completely withered))
Cc1nn(C)c(=O)c(-c2c(-c3cnccc3C(F)(F)F)sc3ccc(F)cc23)c1O [2-387]			4 (Herbicidal rate of 70% or more and less than 90%)		3 (Herbicidal rate of 40% or more and less than 70%)			4 (Herbicidal rate of 70% or more and less than 90%)					3 (Herbicidal rate of 40% or more and less than 70%)	5 (Herbicidal rate of 90% or more (almost completely withered))	1 (Herbicidal rate of 5% or more and less than 20%)	4 (Herbicidal rate of 70% or more and less than 90%)	3 (Herbicidal rate of 40% or more and less than 70%)	3 (Herbicidal rate of 40% or more and less than 70%)	5 (Herbicidal rate of 90% or more (almost completely withered))	0 (Herbicidal rate of 5% or less (almost no effect))	F: southern crabgrass, herbicidal effect (criteria 0-5) [1, 22]: 4 (Herbicidal rate of 70% or more and less than 90%); P: chickweed, herbicidal effect (criteria 0-5) [2, 22]: 5 (Herbicidal rate of 90% or more (almost completely withered)); K: Italian ryegrass, herbicidal effect (criteria 0-5) [5, 22]: 4 (Herbicidal rate of 70% or more and less than 90%); M: velvetleaf, herbicidal effect (criteria 0-5) [8, 22]: 5 (Herbicidal rate of 90% or more (almost completely withered)); L: windgrass, herbicidal effect (criteria 0-5) [11, 22]: 5 (Herbicidal rate of 90% or more (almost completely withered)); J: blackgrass, herbicidal effect (criteria 0-5) [14, 22]: 4 (Herbicidal rate of 70% or more and less than 90%); G: green foxtail, herbicidal effect (criteria 0-5) [15, 22]: 3 (Herbicidal rate of 40% or more and less than 70%); herbicidal effect, O: lambsquarters [18]: 4 (Herbicidal rate of 70% or more and less than 90%); I: wild oat, herbicidal effect (criteria 0-5) [19, 22]: 4 (Herbicidal rate of 70% or more and less than 90%); H: barnyard grass, herbicidal effect (criteria 0-5) [20, 22]: 5 (Herbicidal rate of 90% or more (almost completely withered))
CCCC(=O)Oc1c(C)nn(C)c(=O)c1-c1c(-c2ccc(OC(F)(F)F)cc2)sc2cc(F)ccc12 [3-144]			2 (Herbicidal rate of 20% or more and less than 40%)		5 (Herbicidal rate of 90% or more (almost completely withered))			3 (Herbicidal rate of 40% or more and less than 70%)					3 (Herbicidal rate of 40% or more and less than 70%)								herbicidal effect on F: southern crabgrass (evaluation grade 0-5) [1, 23]: 1 (Herbicidal rate of 5% or more and less than 20%); herbicidal effect on P: chickweed (evaluation grade 0-5) [2, 23]: 5 (Herbicidal rate of 90% or more (almost completely withered)); Herbicidal effect by soil treatment, N: redroot pigweed [4]: 4 (Herbicidal rate of 70% or more and less than 90%); herbicidal effect on K: Italian ryegrass (evaluation grade 0-5) [5, 23]: 0 (Herbicidal rate of 5% or less (almost no effect)); Herbicidal effect by soil treatment, I: wild oat [7]: 0 (Herbicidal rate of 5% or less (almost no effect)); herbicidal effect on M: velvetleaf (evaluation grade 0-5) [8, 23]: 4 (Herbicidal rate of 70% or more and less than 90%); Herbicidal effect by soil treatment, K: Italian ryegrass [9]: 0 (Herbicidal rate of 5% or less (almost no effect)); Herbicidal effect by soil treatment, G: green foxtail [10]: 0 (Herbicidal rate of 5% or less (almost no effect)); herbicidal effect on L: windgrass (evaluation grade 0-5) [11, 23]: 0 (Herbicidal rate of 5% or less (almost no effect)); Herbicidal effect by soil treatment, M: velvetleaf [12]: 0 (Herbicidal rate of 5% or less (almost no effect)); herbicidal effect on J: blackgrass (evaluation grade 0-5) [14, 23]: 0 (Herbicidal rate of 5% or less (almost no effect)); herbicidal effect on G: green foxtail (evaluation grade 0-5) [15, 23]: 5 (Herbicidal rate of 90% or more (almost completely withered)); Herbicidal effect by soil treatment, R: persian speedwell [16]: 0 (Herbicidal rate of 5% or less (almost no effect)); Herbicidal effect by soil treatment, J: blackgrass [17]: 0 (Herbicidal rate of 5% or less (almost no effect)); Herbicidal effect by soil treatment, O: lambsquarters [18]: 3 (Herbicidal rate of 40% or more and less than 70%); herbicidal effect on I: wild oat (evaluation grade 0-5) [19, 23]: 0 (Herbicidal rate of 5% or less (almost no effect)); herbicidal effect on H: barnyard grass (evaluation grade 0-5) [20, 23]: 4 (Herbicidal rate of 70% or more and less than 90%)
COc1cc(F)ccc1-c1sc2cc(F)ccc2c1-c1c(O)c(C)nn(C)c1=O [3-009]	5 (Herbicidal rate of 90% or more (almost completely withered))	5 (Herbicidal rate of 90% or more (almost completely withered))	3 (Herbicidal rate of 40% or more and less than 70%)	5 (Herbicidal rate of 90% or more (almost completely withered))	1 (Herbicidal rate of 5% or more and less than 20%)	5 (Herbicidal rate of 90% or more (almost completely withered))	5 (Herbicidal rate of 90% or more (almost completely withered))	1 (Herbicidal rate of 5% or more and less than 20%)	5 (Herbicidal rate of 90% or more (almost completely withered))	5 (Herbicidal rate of 90% or more (almost completely withered))	5 (Herbicidal rate of 90% or more (almost completely withered))	5 (Herbicidal rate of 90% or more (almost completely withered))	3 (Herbicidal rate of 40% or more and less than 70%)	5 (Herbicidal rate of 90% or more (almost completely withered))	4 (Herbicidal rate of 70% or more and less than 90%)	4 (Herbicidal rate of 70% or more and less than 90%)	4 (Herbicidal rate of 70% or more and less than 90%)	3 (Herbicidal rate of 40% or more and less than 70%)	5 (Herbicidal rate of 90% or more (almost completely withered))	4 (Herbicidal rate of 70% or more and less than 90%)	herbicidal effect, O: lambsquarters [18]: 5 (Herbicidal rate of 90% or more (almost completely withered))
